Measured values reported in patent publication US20230365533A1, “BICYCLOHEPTANE PYRROLIDINE OREXIN RECEPTOR AGONISTS” (MERCK SHARP & DOHME CORP., priority 2021, published 2023).

The molecules below were run against T1, human OX2R (Homo sapiens, UniProt O43614) (assay: IPOne (IP-1) orexin receptor agonist assay in CHO cells expressing human OX2R). Conditions: IPOne assay, CHO cells expressing human OX2R, 2 hours incubation; read-out: hoX2R_IP IC50.
T1 construct: expressed in transfected cells; host or cells: CHO (Chinese hamster ovary) cells, grown under G418 selection
T1 sequence (O43614 1-444): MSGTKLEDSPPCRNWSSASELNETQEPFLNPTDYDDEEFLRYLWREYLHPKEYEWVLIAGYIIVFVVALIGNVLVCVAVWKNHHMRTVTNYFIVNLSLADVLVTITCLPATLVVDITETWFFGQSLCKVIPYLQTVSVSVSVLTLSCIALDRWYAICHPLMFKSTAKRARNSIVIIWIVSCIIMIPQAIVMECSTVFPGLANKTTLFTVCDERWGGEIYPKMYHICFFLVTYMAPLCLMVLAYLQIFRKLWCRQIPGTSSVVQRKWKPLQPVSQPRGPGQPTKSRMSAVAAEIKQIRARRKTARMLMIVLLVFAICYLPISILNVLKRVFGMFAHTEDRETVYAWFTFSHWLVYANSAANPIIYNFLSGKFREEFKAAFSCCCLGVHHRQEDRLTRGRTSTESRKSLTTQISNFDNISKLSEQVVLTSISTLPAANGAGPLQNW
Type: cell-based
In short: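 CHO cells with human OX2R treated 2 h at 37 °C with 10-point ½-log compound dilutions in stimulation buffer; IP-1 accumulation read by HTRF (665/620 nm) after 60 min detection. EC50 from four-parameter fit; % effect versus a 1 uM reference agonist.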

IC50	Structure (SMILES)
6.3 nM	COC(=O)N1[C@H](C)C[C@H](NS(C)(=O)=O)[C@@H]1COC1CCC2(c3ncc(F)cn3)CC2C1 (stereo partly drawn) [Example 135, methyl (2R,3S,5R)-2-(((6-(5-fluoropyrimidin-2-yl)bicyclo[4.1.0]heptan-3-yl)oxy)methyl)-5-methyl-3-(methylsulfonamido)pyrrolidine-1-carboxylate]
161 nM	COC(=O)N1[C@H](C)C[C@H](NS(=O)(=O)N(C)C)[C@@H]1COC1CCC2(c3cnccn3)CC2C1 (single isomer, unassigned) [Example 14]
28.8 nM	COC(=O)N1[C@H](C)C[C@H](NS(=O)(=O)N(C)C)[C@@H]1COC1CCC2(c3ccccn3)CC2C1 (stereo partly drawn) [Example 9, methyl (2R,3S,5R)-3-((N,N-dimethylsulfamoyl)amino)-5-methyl-2-(((6-(pyridin-2-yl)bicyclo[4.1.0]heptan-3-yl)oxy)methyl)pyrrolidine-1-carboxylate]
17.4 nM	COC(=O)N1[C@H](C)C[C@H](NS(=O)(=O)C(F)(F)F)[C@@H]1CO[C@@H]1CC[C@]2(c3ncc(F)cn3)C[C@@H]2C1 [Example 44, methyl (2R,3S,5R)-2-((((1R,3R,6S)-6-(5-fluoropyrimidin-2-yl)bicyclo[4.1.0]heptan-3-yl)oxy)methyl)-5-methyl-3-((trifluoromethyl)sulfonamido)pyrrolidine-1-carboxylate]
51.2 nM	COC(=O)N1[C@H](C)C[C@H](NS(C)(=O)=O)[C@@H]1COC1CCC2(c3ncc(F)c(OC)n3)CC2C1 (stereo partly drawn) [Example 76, methyl (2R,3S,5R)-2-(((6-(5-fluoro-4-methoxypyrimidin-2-yl)bicyclo[4.1.0]heptan-3-yl)oxy)methyl)-5-methyl-3-(methylsulfonamido)pyrrolidine-1-carboxylate]
0.94 nM	COC(=O)N1[C@H](C)C[C@H](NS(=O)(=O)N(C)C)[C@@H]1COC1CCC2(c3ncccn3)CC2C1 (stereo partly drawn) [Example 6, methyl (2R,3S,5R)-3-((N,N-dimethylsulfamoyl)amino)-5-methyl-2-(((6-(pyrimidin-2-yl)bicyclo[4.1.0]heptan-3-yl)oxy)methyl)pyrrolidine-1-carboxylate]
187 nM	COC(=O)N1[C@H](C)C[C@H](NS(C)(=O)=O)[C@@H]1COC1CCC2(c3ncc(Cl)c(C(F)(F)F)n3)CC2C1 (stereo partly drawn) [Example 72, methyl (2R,3S,5R)-2-(((6-(5-chloro-4-(trifluoromethyl)pyrimidin-2-yl)bicyclo[4.1.0]heptan-3-yl)oxy)methyl)-5-methyl-3-(methylsulfonamido)pyrrolidine-1-carboxylate]
1.4 nM	CCC(F)(F)COC(=O)N1[C@H](C)C[C@H](NS(C)(=O)=O)[C@@H]1CO[C@H]1CC[C@@]2(c3ncc(F)cn3)C[C@H]2C1 [Example 60, 2,2-difluorobutyl (2R,3S,5R)-2-((((1S,3S,6R)-6-(5-fluoropyrimidin-2-yl)bicyclo[4.1.0]heptan-3-yl)oxy)methyl)-5-methyl-3-(methylsulfonamido)pyrrolidine-1-carboxylate]
3.5 nM	CC(C)OC(=O)N1[C@H](C)C[C@H](NS(=O)(=O)C(F)F)[C@@H]1COC1CCC2(c3ncc(F)cn3)CC2C1 (stereo partly drawn) [Example 109, isopropyl (2R,3S,5R)-3-((difluoromethyl)sulfonamido)-2-(((6-(5-fluoropyrimidin-2-yl)bicyclo[4.1.0]heptan-3-yl)oxy)methyl)-5-methylpyrrolidine-1-carboxylate]
0.77 nM	CC(OC(=O)N1[C@H](C)C[C@H](NS(C)(=O)=O)[C@@H]1CO[C@H]1CC[C@@]2(c3ncc(F)cn3)C[C@H]2C1)C(F)F (stereo partly drawn) [Example 63, 1,1-Difluoropropan-2-yl (2R,3S,5R)-2-((((1S,3S,6R)-6-(5-fluoropyrimidin-2-yl)bicyclo[4.1.0]heptan-3-yl)oxy)methyl)-5-methyl-3-(methylsulfonamido)pyrrolidine-1-carboxylate]
79.4 nM	COC(=O)N1[C@H](C)C[C@H](NS(C)(=O)=O)[C@@H]1COC1CCC2(c3ncc(C)cn3)CC2C1 (stereo partly drawn) [Example 159, methyl (2R,3S,5R)-5-methyl-2-(((6-(5-methylpyrimidin-2-yl)bicyclo[4.1.0]heptan-3-yl)oxy)methyl)-3-(methylsulfonamido)pyrrolidine-1-carboxylate]
2.3 nM	CC(C)OC(=O)N1[C@H](C)C[C@H](NS(=O)(=O)N(C)C)[C@@H]1CO[C@H]1CC[C@@]2(c3ncccn3)C[C@H]2C1 (single isomer, unassigned) [Example 171]
1.3 nM	C[C@@H]1C[C@H](NS(C)(=O)=O)[C@H](CO[C@H]2CC[C@@]3(c4ncc(F)cn4)C[C@H]3C2)N1C(=O)OC[C@H]1C[C@H]1F [Example 51, ((1R,2R)-2-fluorocyclopropyl)methyl (2R,3S,5R)-2-((((1S,3S,6R)-6-(5-fluoropyrimidin-2-yl)bicyclo[4.1.0]heptan-3-yl)oxy)methyl)-5-methyl-3-(methylsulfonamido)pyrrolidine-1-carboxylate]
10.8 nM	CC(C)OC(=O)N1[C@H](C)C[C@H](NS(=O)(=O)C(F)F)[C@@H]1COC1CCC2(c3ncc(Cl)cn3)CC2C1 (stereo partly drawn) [Example 82, isopropyl (2R,3S,5R)-2-(((6-(5-chloropyrimidin-2-yl)bicyclo[4.1.0]heptan-3-yl)oxy)methyl)-3-((difluoromethyl)sulfonamido)-5-methylpyrrolidine-1-carboxylate]
461 nM	COC(=O)N1[C@H](C)C[C@H](NS(=O)(=O)N(C)C)[C@@H]1COC1CCC2(c3cnccn3)CC2C1 (stereo partly drawn) [Example 13, methyl (2R,3S,5R)-3-((N,N-dimethylsulfamoyl)amino)-5-methyl-2-(((6-(pyrazin-2-yl)bicyclo[4.1.0]heptan-3-yl)oxy)methyl)pyrrolidine-1-carboxylate]
5.2 nM	CC(C)OC(=O)N1[C@H](C)C[C@H](NS(=O)(=O)N(C)C)[C@@H]1CO[C@@H]1CC[C@]2(c3ncccn3)C[C@@H]2C1 (single isomer, unassigned) [Example 170]
7.5 nM	CC(C)OC(=O)N1[C@H](C)C[C@H](NS(=O)(=O)N(C)C)[C@@H]1COC1CCC2(c3ncccn3)CC2C1 (stereo partly drawn) [Example 174, isopropyl (2R,3S,5R)-3-((N,N-dimethylsulfamoyl)amino)-5-methyl-2-(((6-(pyrimidin-2-yl)bicyclo[4.1.0]heptan-3-yl)oxy)methyl)pyrrolidine-1-carboxylate]
3 nM	COC(=O)N1[C@H](C)C[C@H](NS(=O)(=O)C(F)(F)F)[C@@H]1CO[C@H]1CC[C@@]2(c3ncc(F)cn3)C[C@H]2C1 [Example 31, methyl (2R,3S,5R)-2-((((1S,3S,6R)-6-(5-fluoropyrimidin-2-yl)bicyclo[4.1.0]heptan-3-yl)oxy)methyl)-5-methyl-3-((trifluoromethyl)sulfonamido)pyrrolidine-1-carboxylate]
20.4 nM	COC(=O)N1[C@H](C)C[C@H](NS(=O)(=O)C(F)F)[C@@H]1CO[C@@H]1CC[C@]2(c3ncccn3)C[C@@H]2C1 (single isomer, unassigned) [Example 69]
9.7 nM	COC[C@@H]1C[C@H](NS(C)(=O)=O)[C@H](CO[C@H]2CC[C@@]3(c4ncc(F)cn4)C[C@H]3C2)N1C(=O)OC [Example 132, methyl (2R,3S,5S)-2-((((1S,3S,6R)-6-(5-fluoropyrimidin-2-yl)bicyclo[4.1.0]heptan-3-yl)oxy)methyl)-5-(methoxymethyl)-3-(methylsulfonamido)pyrrolidine-1-carboxylate]
4.1 nM	CC(C)OC(=O)N1CCC[C@H](NS(=O)(=O)C(F)(F)F)[C@@H]1COC1CC[C@@]2(c3ncc(F)cn3)CC2C1 (stereo partly drawn) [Example 123, isopropyl (2R,3S)-2-(((6-(5-fluoropyrimidin-2-yl)bicyclo[4.1.0]heptan-3-yl)oxy)methyl)-3-((trifluoromethyl)sulfonamido)piperidine-1-carboxylate]
1.8 nM	COC(=O)N1[C@@H]2CCC[C@@H]2[C@H](NS(=O)(=O)C2CC2)[C@@H]1COC1CCC2(c3ncc(F)cn3)CC2C1 (stereo partly drawn) [Example 128, methyl (2R,3S,3aS,6aR)-3-(cyclopropanesulfonamido)-2-(((6-(5-fluoropyrimidin-2-yl)bicyclo[4.1.0]heptan-3-yl)oxy)methyl)hexahydrocyclopenta[b]pyrrole-1(2H)-carboxylate]
2.8 nM	COC(=O)N1[C@H](C)C[C@H](NS(C)(=O)=O)[C@@H]1CO[C@H]1CC[C@@]2(c3ncc(Cl)cn3)C[C@H]2C1 (single isomer, unassigned) [Example 142]
2.6 nM	CC(C)OC(=O)N1[C@H](C)C[C@H](NS(=O)(=O)N(C)C)[C@@H]1COC1CCC2(c3ncc(F)cn3)CC2C1 (stereo partly drawn) [Example 164, isopropyl (2R,3S,5R)-3-((N,N-dimethylsulfamoyl)amino)-2-(((6-(5-fluoropyrimidin-2-yl)bicyclo[4.1.0]heptan-3-yl)oxy)methyl)-5-methylpyrrolidine-1-carboxylate]
4.5 nM	CC(C)OC(=O)N1[C@H](C)C[C@H](NS(=O)(=O)CF)[C@@H]1COC1CCC2(c3ncc(Cl)cn3)CC2C1 (stereo partly drawn) [Example 107, isopropyl (2R,3S,5R)-2-(((6-(5-chloropyrimidin-2-yl)bicyclo[4.1.0]heptan-3-yl)oxy)methyl)-3-((fluoromethyl)sulfonamido)-5-methylpyrrolidine-1-carboxylate]
86.4 nM	COC(=O)N1[C@H](C)C[C@H](NS(C)(=O)=O)[C@@H]1CO[C@@H]1CC[C@]2(c3ncc(Cl)cn3)C[C@@H]2C1 (single isomer, unassigned) [Example 141]
